From US20210261642A1, “SOLUBILITY OF GLP-1 PEPTIDE” (Novo Nordisk A/S, priority 2017, published 2021)

Assay: Assay (I): Determination of Solubility (96-well plate, pH 3.0-11.0, organic solvent 0-70% w/w, UV absorption at 280 nm)
Format: physicochemical
Conditions: Method 1
Experimental: Assay (I): Determination of Solubility
96-Well Plate Preparation
96-well plates containing target peptide in a solid form were prepared in one of two ways:
Method 1 (evaporation): Addition of 100 μl stock solution of said peptide at a concentration of 4-6 mg/ml to each well of a 96-well half area plate (150 μl well size). Subsequently the solvent was evaporated by applying a vacuum until the solvent was completely removed.
Method 2 (precipitation): Addition of a certain volume of a stock solution of said peptide containing to each well of a 96-well half area plate followed by the addition of a certain volume of concentrated phosphoric acid to obtain a pH of 4.6 followed by addition of a certain volume of ethanol resulting in a final ethanol concentration of 20% v/v. Subsequently the plate was stored at 4° C. for 1 h and then centrifuged at 4,000 rpm for 20 min. Finally the supernatant was removed. The concentration of the stock solution was chosen in a way that the final amount of peptide after supernatant removal was >0.4 mg per well.
In both cases the stock solution was prepared by adding de-ionized water to a certain amount of powder of said peptide followed by a stepwise addition of small amounts of a concentrated sodium hydroxide solution until said peptide was completely in solution.
To determine solubility of a target peptide at different pH and organic solvent concentrations, two different buffer systems were used in independent experiments to cover the whole range from pH 3.0 to pH 11.0. Buffer system 1 covers pH 3.0-7.5 and buffer system 2 covers pH 7.5-11.0. For each buffer system 96 different solvent compositions were premixed in the following way: • 1. A low pH buffer (adjusted to either pH 3.0 or pH 7.5) and a high pH buffer (adjusted to either pH 7.5 or pH 11.0) were mixed at 8 different ratios to obtain values between pH 3.0 and pH 7.5 or pH 7.5 and pH 11.0, respectively. The total volume after mixing was 300 μl. • 2. 12 different amounts of organic solvent were then added to these buffers to obtain organic solvent (e.g. ethanol) concentrations between 0 and 70% w/w. • 3. Water was then added to obtain a total weight of 1.0 g of solvent in each well.
After preparing the 96 different solvent systems, 100 μl of each system was transferred to the 96-well plate containing the solid form of the target peptide (prepared as described in the section “96-well plate preparation”). The plate was then stored at a given temperature (between 5° C. and 70° C.) for a given time on a rotating shaker set to 400 rpm. At regular time intervals the plate was centrifuged (4,000 rpm for 10 min) and a 10 μl sample was taken from each well. The samples were then analysed by UV absorption at 280 nm for peptide quantification. Peptide concentration results are given as UV absorption at 280 nm of the sample subtracted UV absorption at 280 nm of a well comprising 10 μl water.
The buffers used were as follows: • Buffer system 1 (for the pH range from pH 3.0-7.5)
• Buffer system 2 (for the pH ranae from pH 7.5-11.0)
Solubility of liraglutide was determined using Assay (I) described herein. Liraglutide was prepared using Method 1 (evaporation) or Method 2 (precipitation) as described in subsection “96-well plate preparation”.

Peptide concentration after 180 min (MeCN 6.4% w/w, pH 3.6, 5° C.): 0.1 mg/mL | Peptide concentration after 24 h (MeCN 6.4% w/w, pH 3.6, 5° C.): 0.2 mg/mL | Peptide concentration after 24 h (MeCN 6.4% w/w, pH 3.6, RT): 0.1 mg/mL | Peptide concentration after 5 min (MeCN 6.4% w/w, pH 4.3, 5° C.): 0.1 mg/mL | Peptide concentration after 180 min (MeCN 6.4% w/w, pH 4.3, 5° C.): 0.1 mg/mL | Peptide concentration after 24 h (MeCN 6.4% w/w, pH 4.3, 5° C.): 0.2 mg/mL | Peptide concentration after 5 min (MeCN 6.4% w/w, pH 8.0, 5° C.): 0.8 mg/mL | Peptide concentration after 180 min (MeCN 6.4% w/w, pH 8.0, 5° C.): 2.2 mg/mL | Peptide concentration after 24 h (MeCN 6.4% w/w, pH 8.0, 5° C.): >4.0 mg/mL | Peptide concentration after 5 min (MeCN 6.4% w/w, pH 8.5, 5° C.): 0.8 mg/mL | Peptide concentration after 180 min (MeCN 6.4% w/w, pH 8.5, 5° C.): 2.6 mg/mL | Peptide concentration after 24 h (MeCN 6.4% w/w, pH 8.5, 5° C.): >4.0 mg/mL | Peptide concentration after 5 min (MeCN 6.4% w/w, pH 9.0, 5° C.): 1.0 mg/mL | Peptide concentration after 180 min (MeCN 6.4% w/w, pH 9.0, 5° C.): 2.9 mg/mL | Peptide concentration after 24 h (MeCN 6.4% w/w, pH 9.0, 5° C.): >4.0 mg/mL | Peptide concentration after 5 min (MeCN 6.4% w/w, pH 9.5, 5° C.): 0.6 mg/mL | Peptide concentration after 180 min (MeCN 6.4% w/w, pH 9.5, 5° C.): 2.5 mg/mL | Peptide concentration after 24 h (MeCN 6.4% w/w, pH 9.5, 5° C.): >4.0 mg/mL | Peptide concentration after 5 min (MeCN 6.4% w/w, pH 10.0, 5° C.): 1.0 mg/mL | Peptide concentration after 180 min (MeCN 6.4% w/w, pH 10.0, 5° C.): 3.1 mg/mL | Peptide concentration after 24 h (MeCN 6.4% w/w, pH 10.0, 5° C.): >4.0 mg/mL | Peptide concentration after 5 min (MeCN 6.4% w/w, pH 10.5, 5° C.): 0.7 mg/mL | Peptide concentration after 180 min (MeCN 6.4% w/w, pH 10.5, 5° C.): 2.6 mg/mL | Peptide concentration after 24 h (MeCN 6.4% w/w, pH 10.5, 5° C.): >4.0 mg/mL | Peptide concentration after 5 min (MeCN 6.4% w/w, pH 11.0, 5° C.): 0.7 mg/mL | Peptide concentration after 180 min (MeCN 6.4% w/w, pH 11.0, 5° C.): 1.7 mg/mL | Peptide concentration after 24 h (MeCN 6.4% w/w, pH 11.0, 5° C.): >4.0 mg/mL | Peptide concentration after 5 min (MeCN 12.7% w/w, pH 8.0, 5° C.): 1.3 mg/mL | Peptide concentration after 180 min (MeCN 12.7% w/w, pH 8.0, 5° C.): 2.2 mg/mL | Peptide concentration after 24 h (MeCN 12.7% w/w, pH 8.0, 5° C.): >4.0 mg/mL | Peptide concentration after 5 min (MeCN 12.7% w/w, pH 8.5, 5° C.): 0.8 mg/mL | Peptide concentration after 180 min (MeCN 12.7% w/w, pH 8.5, 5° C.): 2.1 mg/mL | Peptide concentration after 24 h (MeCN 12.7% w/w, pH 8.5, 5° C.): >4.0 mg/mL | Peptide concentration after 5 min (MeCN 12.7% w/w, pH 9.0, 5° C.): 0.8 mg/mL | Peptide concentration after 180 min (MeCN 12.7% w/w, pH 9.0, 5° C.): 1.8 mg/mL | Peptide concentration after 24 h (MeCN 12.7% w/w, pH 9.0, 5° C.): >4.0 mg/mL | Peptide concentration after 5 min (MeCN 12.7% w/w, pH 9.5, 5° C.): 0.9 mg/mL | Peptide concentration after 180 min (MeCN 12.7% w/w, pH 9.5, 5° C.): 1.9 mg/mL | Peptide concentration after 24 h (MeCN 12.7% w/w, pH 9.5, 5° C.): >4.0 mg/mL | Peptide concentration after 5 min (MeCN 12.7% w/w, pH 10.0, 5° C.): 0.8 mg/mL | Peptide concentration after 180 min (MeCN 12.7% w/w, pH 10.0, 5° C.): 2.3 mg/mL | Peptide concentration after 24 h (MeCN 12.7% w/w, pH 10.0, 5° C.): >4.0 mg/mL | Peptide concentration after 5 min (MeCN 12.7% w/w, pH 10.5, 5° C.): 1.1 mg/mL | Peptide concentration after 180 min (MeCN 12.7% w/w, pH 10.5, 5° C.): 2.1 mg/mL | Peptide concentration after 24 h (MeCN 12.7% w/w, pH 10.5, 5° C.): >4.0 mg/mL | Peptide concentration after 5 min (MeCN 12.7% w/w, pH 11.0, 5° C.): 0.6 mg/mL | Peptide concentration after 180 min (MeCN 12.7% w/w, pH 11.0, 5° C.): 1.5 mg/mL | Peptide concentration after 24 h (MeCN 12.7% w/w, pH 11.0, 5° C.): >4.0 mg/mL | Peptide concentration after 5 min (MeCN 19.1% w/w, pH 8.0, 5° C.): 1.0 mg/mL | Peptide concentration after 180 min (MeCN 19.1% w/w, pH 8.0, 5° C.): 2.7 mg/mL | Peptide concentration after 24 h (MeCN 19.1% w/w, pH 8.0, 5° C.): >4.0 mg/mL
SMILES: CCCCCCCCCCCCCCCC(=O)N[C@@H](CCC(=O)NCCCC[C@H](NC(=O)[C@H](C)NC(=O)[C@H](C)NC(=O)[C@H](CCC(N)=O)NC(=O)CNC(=O)[C@H](CCC(=O)O)NC(=O)[C@H](CC(C)C)NC(=O)[C@H](Cc1ccc(O)cc1)NC(=O)[C@H](CO)NC(=O)[C@H](CO)NC(=O)[C@@H](NC(=O)[C@H](CC(=O)O)NC(=O)[C@H](CO)NC(=O)[C@@H](NC(=O)[C@H](Cc1ccccc1)NC(=O)[C@@H](NC(=O)CNC(=O)[C@H](CCC(=O)O)NC(=O)[C@H](C)NC(=O)[C@@H](N)Cc1cnc[nH]1)[C@@H](C)O)[C@@H](C)O)C(C)C)C(=O)N[C@@H](CCC(=O)O)C(=O)N[C@@H](Cc1ccccc1)C(=O)N[C@H](C(=O)N[C@@H](C)C(=O)N[C@@H](Cc1c[nH]c2ccccc12)C(=O)N[C@@H](CC(C)C)C(=O)N[C@H](C(=O)N[C@@H](CCCNC(=N)N)C(=O)NCC(=O)N[C@@H](CCCNC(=N)N)C(=O)NCC(=O)O)C(C)C)[C@@H](C)CC)C(=O)O [liraglutide, Arg34,Lys26-(N-epsilon-(gamma-L-glutamyl(N-alfa-hexadecanoyl)))-GLP-1(7-37)]
